Type in all cases: cell-based
For one experiment, the target named is T1, hGIPR (Homo sapiens, UniProt P48546).
T1 construct: expressed in transfected cells
T1 sequence (P48546 22-466): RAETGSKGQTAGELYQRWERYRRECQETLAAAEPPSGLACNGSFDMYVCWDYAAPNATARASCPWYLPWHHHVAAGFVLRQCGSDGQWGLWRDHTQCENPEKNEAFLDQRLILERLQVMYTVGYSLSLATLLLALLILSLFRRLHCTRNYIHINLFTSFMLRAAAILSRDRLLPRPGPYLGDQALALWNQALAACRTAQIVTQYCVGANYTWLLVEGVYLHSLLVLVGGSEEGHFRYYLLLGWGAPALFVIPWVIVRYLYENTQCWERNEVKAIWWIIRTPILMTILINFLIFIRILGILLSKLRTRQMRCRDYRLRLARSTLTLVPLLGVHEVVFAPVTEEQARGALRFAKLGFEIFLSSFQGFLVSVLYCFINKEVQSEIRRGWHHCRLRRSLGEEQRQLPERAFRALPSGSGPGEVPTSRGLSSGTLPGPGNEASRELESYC
Kind of experiment: Functional cAMP formation (HTRF) in HEK-293 clonal cells expressing hGIPR, 0.1% bovine casein, without or with 1.0% human serum albumin. To be noted: 37° C.; for EC50: geometric mean, read-out: hGIPR EC50, nM (SEM, n). An outline of the steps:
(§1)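 Cells were stimulated with peptide for 30 min at 37° C, then intracellular cAMP was measured by competitive HTRF (665/620 nm ratio) and converted to nM using a cAMP standard curve. Relative EC50 and Emax came from four-parameter logistic fits of percent maximal response against peptide concentration.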
On the technique in general: Changes in cAMP serve as a functional read-out for many G protein-coupled receptors.

Another experiment deals with T2, hGCGR (Homo sapiens, UniProt P47871).
T2 construct: expressed in transfected cells
Kind of experiment: Functional cAMP formation (HTRF) in HEK-293 clonal cells expressing hGCGR, 0.1% bovine casein, without or with 1.0% human serum albumin. Put shortly:
as §1

The next experiment concerns the target hGLP-1R (Homo sapiens, UniProt P43220). Kind of experiment: Functional cAMP formation (HTRF) in HEK-293 clonal cells expressing hGLP-1R, 0.1% bovine casein, without or with 1.0% human serum albumin. Set-up: expressed in transfected cells. As to conditions: for Emax: 0.1% bovine casein, arithmetic mean. Put shortly: as §1
[1] abbreviates: HEK293, cAMP, 0.1% bovine casein and 1.0% human serum albumin, percent of maximal response to GIP(1-42)NH2, read-out: hGIPR Emax, % ± SEM.
The mark [2] stands for this setting: cAMP, 0.1% bovine casein (no human serum albumin).
Setting [3] is: cAMP, 37° C., 0.1% bovine casein (no human serum albumin), geometric mean, read-out: hGCGR EC50, nM (SEM, n).
[4] abbreviates: cAMP, 37° C., 0.1% bovine casein and 1.0% human serum albumin, geometric mean (SEM, n), read-out: hGCGR EC50, nM (SEM, n).
Setting [5] is: HEK293, cAMP, 37° C., percent of maximal response to GLP-1(7-36)NH2, read-out: hGLP-1R Emax, % ± SEM.
Where [6] appears, read: cAMP, 37° C., 0.1% bovine casein (no human serum albumin), geometric mean, read-out: hGLP-1R EC50, nM (SEM, n).

Like-named read-outs stand apart in the source and are kept apart here.

Chain of hGLP-1R (P43220 24-463): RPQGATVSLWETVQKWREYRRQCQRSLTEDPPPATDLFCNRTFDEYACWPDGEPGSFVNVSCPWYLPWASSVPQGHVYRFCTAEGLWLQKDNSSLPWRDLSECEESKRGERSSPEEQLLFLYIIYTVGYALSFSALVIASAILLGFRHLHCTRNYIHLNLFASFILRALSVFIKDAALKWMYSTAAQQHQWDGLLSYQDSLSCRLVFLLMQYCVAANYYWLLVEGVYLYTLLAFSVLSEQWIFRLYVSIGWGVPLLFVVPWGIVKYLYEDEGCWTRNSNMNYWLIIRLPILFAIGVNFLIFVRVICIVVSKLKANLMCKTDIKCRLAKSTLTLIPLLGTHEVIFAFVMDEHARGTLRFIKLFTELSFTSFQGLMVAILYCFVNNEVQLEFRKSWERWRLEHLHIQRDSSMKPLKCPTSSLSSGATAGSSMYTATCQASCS
T2 sequence (P47871 26-477): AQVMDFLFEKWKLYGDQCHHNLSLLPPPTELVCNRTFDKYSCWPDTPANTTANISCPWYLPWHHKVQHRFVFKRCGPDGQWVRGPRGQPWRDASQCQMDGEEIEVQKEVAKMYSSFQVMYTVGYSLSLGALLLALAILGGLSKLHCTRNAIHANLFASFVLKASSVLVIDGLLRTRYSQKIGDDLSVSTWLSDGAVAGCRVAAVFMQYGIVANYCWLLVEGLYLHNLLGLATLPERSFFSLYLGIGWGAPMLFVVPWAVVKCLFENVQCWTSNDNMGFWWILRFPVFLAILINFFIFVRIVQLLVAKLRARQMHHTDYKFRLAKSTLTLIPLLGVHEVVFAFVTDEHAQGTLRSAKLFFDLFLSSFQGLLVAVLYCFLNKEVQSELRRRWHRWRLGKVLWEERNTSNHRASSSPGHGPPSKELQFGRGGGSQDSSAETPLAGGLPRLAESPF

A word on the Emax: it is the maximal effect, on the per cent scale that the assay sets. The EC50 is the concentration needed to bring the measured effect to its halfway point. Take `CC[C@H](C)[C@H](NC(=O)[C@H](CC(C)C)NC(=O)[C@](C)(Cc1ccccc1)NC(=O)[C@H](CCCCNC(=O)COCCOCCNC(=O)COCCOCCNC(=O)CC[C@H](NC(=O)CCCCCCCCCCCCC(=O)O)C(=O)O)NC(=O)[C@@H](NC(=O)[C@](C)(Cc1ccccc1)NC(=O)[C@H](CCC(=O)O)NC(=O)C(C)(C)NC(=O)[C@H](CCC(N)=O)NC(=O)[C@H](C)NC(=O)[C@H](CCCCNC(=O)COCCOCCNC(=O)COCCOCCNC(=O)CC[C@H](NC(=O)CCCCCCCCCCCCC(=O)O)C(=O)O)NC(=O)[C@H](CCCN)NC(=O)[C@H](CC(=O)O)NC(=O)[C@H](CC(C)C)NC(=O)[C@](C)(CC(C)C)NC(=O)[C@@H](NC(=O)C(C)(C)NC(=O)[C@@H](NC(=O)[C@H](CC(=O)O)NC(=O)[C@H](CO)NC(=O)[C@@H](NC(=O)[C@](C)(Cc1ccccc1F)NC(=O)[C@@H](NC(=O)CNC(=O)[C@H](CCC(=O)O)NC(=O)C(C)(C)NC(=O)[C@@H](N)Cc1ccc(O)cc1)[C@@H](C)O)[C@@H](C)O)C(C)C)[C@@H](C)CC)[C@@H](C)CC)C(=O)N[C@@H](CCC(=O)O)C(=O)NCC(=O)NCC(=O)N1CCC[C@H]1C(=O)N[C@@H](CO)C(=O)N[C@@H](CO)C(=O)NCC(=O)N[C@@H](C)C(=O)N1CCC[C@H]1C(=O)N1CCC[C@H]1C(=O)N1CCC[C@H]1C(=O)N[C@@H](CO)C(N)=O` [Example 123]: the Emax on hGIPR (HEK293, read-out: hGIPR Emax, % ± SEM, percent of maximal response to GIP(1-42)NH2, 0.1% bovine casein, arithmetic mean) was found to be 94.9%; at hGLP-1R (HEK293, read-out: hGLP-1R Emax, % ± SEM, percent of maximal response to GLP-1(7-36)NH2, 37° C.), 96.3%. The EC50 was above 9950 nM on hGCGR (hGCGR EC50, nM (SEM, n), cAMP, incubated at 37° C., 0.1% bovine casein (no human serum albumin), geometric mean) and 0.508 nM at hGLP-1R (hGLP-1R EC50, nM (SEM, n), cAMP, incubated at 37° C., 0.1% bovine casein (no human serum albumin), geometric mean).
Turning to `CCCCCCCCCCCC(=O)N[C@@H](CCC(=O)NCCOCCOCC(=O)NCCOCCOCC(=O)NCCCC[C@H](NC(=O)[C@H](CCCN)NC(=O)[C@H](CC(=O)O)NC(=O)[C@H](CC(C)C)NC(=O)[C@](C)(CC(C)C)NC(=O)[C@@H](NC(=O)C(C)(C)NC(=O)[C@H](Cc1ccncc1)NC(=O)[C@H](CC(=O)O)NC(=O)[C@H](CO)NC(=O)[C@@H](NC(=O)[C@](C)(Cc1ccccc1F)NC(=O)[C@@H](NC(=O)CNC(=O)[C@H](CCC(=O)O)NC(=O)C(C)(C)NC(=O)[C@@H](N)Cc1ccc(O)cc1)[C@@H](C)O)[C@@H](C)O)[C@@H](C)CC)C(=O)N[C@@H](C)C(=O)N[C@@H](CCC(N)=O)C(=O)NC(C)(C)C(=O)N[C@@H](CCCCNC(=O)COCCOCCNC(=O)COCCOCCNC(=O)CC[C@H](NC(=O)CCCCCCCCCCC)C(=O)O)C(=O)N[C@@H](Cc1ccccc1)C(=O)N[C@H](C(=O)N[C@H](CCC(=O)O)C(=O)N[C@@](C)(Cc1ccc(O)cc1)C(=O)N[C@@H](CC(C)C)C(=O)N[C@H](C(=O)N[C@@H](CCCN)C(=O)NCC(=O)NCC(=O)N1CCC[C@H]1C(=O)N[C@@H](CO)C(=O)N[C@@H](CO)C(=O)NCC(=O)N[C@@H](C)C(=O)N1CCC[C@H]1C(=O)N1CCC[C@H]1C(=O)N1CCC[C@H]1C(=O)N[C@@H](CO)C(N)=O)[C@@H](C)CC)[C@@H](C)CC)C(=O)O` [Example 413], the Emax at hGIPR (setting [1]) turned out to be 91.8%; on hGLP-1R (setting [5]), 96.9%. Moreover, the EC50 on hGIPR (setting [2]) is 0.0146 nM; on hGCGR (setting [3]), above 9950 nM; on hGCGR (setting [4]) it was above 9950 nM; on hGLP-1R (setting [6]), 0.234 nM; on hGLP-1R (cAMP, 37° C., 0.1% bovine casein and 1.0% human serum albumin, geometric mean (SEM, n), read-out: hGLP-1R EC50, nM (SEM, n)) it was 5.47 nM.
Regarding `CC[C@H](C)[C@H](NC(=O)[C@H](CC(C)C)NC(=O)[C@](C)(Cc1ccc(O)cc1)NC(=O)[C@@H](CCC(=O)O)NC(=O)[C@@H](NC(=O)[C@H](Cc1ccccc1)NC(=O)[C@H](CCC(=O)O)NC(=O)C(C)(C)NC(=O)[C@H](CCC(N)=O)NC(=O)[C@H](C)NC(=O)[C@H](CCCCNC(=O)COCCOCCNC(=O)COCCOCCNC(=O)CC[C@H](NC(=O)CCCCCCCCCCCCC(=O)O)C(=O)O)NC(=O)[C@H](CCCN)NC(=O)[C@H](CC(=O)O)NC(=O)[C@H](CC(C)C)NC(=O)[C@](C)(CC(C)C)NC(=O)[C@@H](NC(=O)C(C)(C)NC(=O)[C@@H](NC(=O)[C@H](CC(=O)O)NC(=O)[C@H](CO)NC(=O)[C@@H](NC(=O)[C@](C)(Cc1ccccc1F)NC(=O)[C@@H](NC(=O)CNC(=O)[C@H](CCC(=O)O)NC(=O)C(C)(C)NC(=O)[C@@H](N)Cc1ccc(O)cc1)[C@@H](C)O)[C@@H](C)O)C(C)C)[C@@H](C)CC)[C@@H](C)CC)C(=O)N[C@@H](CCCCNC(=O)COCCOCCNC(=O)COCCOCCNC(=O)CC[C@H](NC(=O)CCCCCCCCCCCCC(=O)O)C(=O)O)C(=O)NCC(=O)NCC(=O)N1CCC[C@H]1C(=O)N[C@@H](CO)C(=O)N[C@@H](CO)C(=O)NCC(=O)N[C@@H](C)C(=O)N1CCC[C@H]1C(=O)N1CCC[C@H]1C(=O)N1CCC[C@H]1C(=O)N[C@@H](CO)C(N)=O` [Example 325], the Emax at hGIPR (setting [1]) worked out at 94.7%; at hGLP-1R (setting [5]), 97.8%. Further, the half-maximal effective concentration (EC50) was 0.0485 nM on hGIPR (setting [2]), above 9950 nM on hGCGR (setting [3]), above 9950 nM on hGCGR (setting [4]) and 0.225 nM at hGLP-1R (setting [6]).
On to `CC[C@H](C)[C@H](NC(=O)[C@H](CC(C)C)NC(=O)[C@](C)(Cc1ccc(O)cc1)NC(=O)[C@@H](CCC(=O)O)NC(=O)[C@@H](NC(=O)[C@H](Cc1ccccc1)NC(=O)[C@H](CCC(=O)O)NC(=O)C(C)(C)NC(=O)[C@H](CCC(N)=O)NC(=O)[C@H](C)NC(=O)[C@H](CCCCNC(=O)COCCOCCNC(=O)COCCOCCNC(=O)CCCCCCCCCCCCC(=O)O)NC(=O)[C@H](CCCN)NC(=O)[C@H](CC(=O)O)NC(=O)[C@H](CC(C)C)NC(=O)[C@](C)(CC(C)C)NC(=O)[C@@H](NC(=O)[C@H](CO)NC(=O)[C@H](Cc1ccncc1)NC(=O)[C@H](CC(=O)O)NC(=O)[C@H](CO)NC(=O)[C@@H](NC(=O)[C@](C)(Cc1ccccc1F)NC(=O)[C@@H](NC(=O)CNC(=O)[C@H](CCC(=O)O)NC(=O)C(C)(C)NC(=O)[C@@H](N)Cc1ccc(O)cc1)[C@@H](C)O)[C@@H](C)O)[C@@H](C)CC)[C@@H](C)CC)C(=O)N[C@@H](CCCCNC(=O)COCCOCCNC(=O)COCCOCCNC(=O)CCCCCCCCCCCCC(=O)O)C(=O)NCC(=O)NCC(=O)N1CCC[C@H]1C(=O)N[C@@H](CO)C(=O)N[C@@H](CO)C(=O)NCC(=O)N[C@@H](C)C(=O)N1CCC[C@H]1C(=O)N1CCC[C@H]1C(=O)N1CCC[C@H]1C(=O)N[C@@H](CO)C(N)=O` [Example 210], for which the EC50 was 0.44 nM at hGIPR (0.1% bovine casein and 1.0% human serum albumin); above 9950 nM at hGCGR (0.1% bovine casein and 1.0% human serum albumin, 37° C., geometric mean, read-out: hGCGR EC50, nM (SEM, n)); above 9950 nM on hGCGR (cAMP, incubated at 37° C., 0.1% bovine casein (no human serum albumin), geometric mean, read-out: hGCGR EC50, nM (SEM, n)); 8.86 nM at hGLP-1R (0.1% bovine casein and 1.0% human serum albumin, 37° C., geometric mean, read-out: hGLP-1R EC50, nM (SEM, n)). The maximal effect (Emax) at hGIPR (HEK293, 0.1% bovine casein and 1.0% human serum albumin, percent of maximal response to GIP(1-42)NH2, read-out: hGIPR Emax, % ± SEM) was 68.1%; at hGIPR (HEK293, percent of maximal response to GIP(1-42)NH2, 0.1% bovine casein, arithmetic mean, read-out: hGIPR Emax, % ± SEM) it was 92.1%.

These data come from patent US20230265151A1, “GIP/GLP1 CO-AGONIST COMPOUNDS” (priority 2020, published 2023).
